Assay results as given in ChEMBL document CHEMBL3997827, “Synthesis of novel spiro[pyrazolo[4,3-d]pyrimidinones and spiro[benzo[4,5]thieno[2,3-d]pyrimidine-2,3'-indoline]-2',4(3H)-diones and their evaluation for anticancer activity” (Bioorg Med Chem Lett, 2017).

What was measured:
[1] = test system: K562; test: Cytotoxicity against human K562 cells assessed as decrease in cell viability after 24 hrs by MTT assay; type: functional, cell-based; conditions: K562, 24 h
[2] = test system: MDA-MB-231; test: Cytotoxicity against human MDA-MB-231 cells assessed as decrease in cell viability after 24 hrs by MTT assay; type: functional, cell-based; conditions: MDA-MB-231, 24 h
[3] = test system: COLO 205; test: Cytotoxicity against human COLO205 cells assessed as decrease in cell viability after 24 hrs by MTT assay; type: functional, cell-based; conditions: COLO 205, 24 h
[4] = molecular target: T1, NAD-dependent protein deacetylase sirtuin-1 (Homo sapiens) (UniProt Q96EB6); test: Inhibition of human Sirt1 expressed in bacteria at 10 uM using fluorophorelabeled substrate peptide after 15 mins by fluorescence assay relative to control
T1 sequence (whole entry): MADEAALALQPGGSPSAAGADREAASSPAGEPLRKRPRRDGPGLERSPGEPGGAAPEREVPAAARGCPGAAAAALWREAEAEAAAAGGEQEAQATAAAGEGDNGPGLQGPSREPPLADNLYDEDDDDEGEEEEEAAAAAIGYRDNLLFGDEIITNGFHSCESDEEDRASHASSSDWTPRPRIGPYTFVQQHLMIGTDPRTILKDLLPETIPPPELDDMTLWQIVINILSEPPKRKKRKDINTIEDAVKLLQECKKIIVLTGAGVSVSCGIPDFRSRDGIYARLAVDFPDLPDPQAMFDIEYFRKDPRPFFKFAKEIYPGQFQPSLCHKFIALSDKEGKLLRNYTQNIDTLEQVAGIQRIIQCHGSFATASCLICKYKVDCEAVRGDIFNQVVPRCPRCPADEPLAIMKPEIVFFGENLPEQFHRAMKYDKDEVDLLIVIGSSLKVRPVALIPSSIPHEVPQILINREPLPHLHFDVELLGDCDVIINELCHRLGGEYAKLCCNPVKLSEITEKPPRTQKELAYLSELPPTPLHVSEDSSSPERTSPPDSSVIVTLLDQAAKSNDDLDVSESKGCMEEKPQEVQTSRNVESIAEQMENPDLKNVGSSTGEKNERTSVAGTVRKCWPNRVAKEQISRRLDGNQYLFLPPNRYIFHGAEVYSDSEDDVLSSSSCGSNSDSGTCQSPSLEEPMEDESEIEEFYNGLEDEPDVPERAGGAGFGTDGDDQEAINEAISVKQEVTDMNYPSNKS

Row | inhibition [4] [%] | SMILES | IC50 [1] [µM] | IC50 [2] [µM] | IC50 [3] [µM]
1 |  | CCCc1nn(C)c2c1NC1(CCC(C)(C)CC1)NC2=O | 19 | 45 | 24
2 |  | CCCc1nn(C)c2c1NC1(CCCC1)NC2=O | 14 | 34 | 17
3 | 46 to 69 | CN1C(=O)C2(NC(=O)c3c(sc4c3CCCC4)N2)c2ccccc21 (centres undefined) | 16 | 39 | 9
4 |  | CCCc1nn(C)c2c1NC1(NC2=O)C(=O)N(CC)c2ccccc21 (centres undefined) | 22 | 41 | 16
5 | 46 to 69 | CCCc1nn(C)c2c1NC1(NC2=O)C(=O)N(C(=O)OC(C)(C)C)c2ccccc21 (centres undefined) | 15 | 28 | 10
6 |  | CCCCCCCCCCCCN1C(=O)C2(NC(=O)c3c(sc4c3CCCC4)N2)c2ccccc21 (centres undefined) | 27 | 29 | 16
7 |  | CCCc1nn(C)c2c1NC1(NC2=O)C(=O)N(C)c2ccccc21 (centres undefined) | 20 | 34 | 15
8 | 46 to 69 | CC(C)N1C(=O)C2(NC(=O)c3c(sc4c3CCCC4)N2)c2ccccc21 (centres undefined) | 12 | 22 | 6
9 | 46 to 69 | CCCCCCCCCCCCCCCCN1C(=O)C2(NC(=O)c3c(sc4c3CCCC4)N2)c2ccccc21 (centres undefined) | 19 | 34 | 18
10 |  | CCCc1nn(C)c2c1NC1(CCCCC1)NC2=O | 16 | 35 | 18
11 | 46 to 69 | CCCc1nn(C)c2c1NC1(NC2=O)C(=O)N(Cc2ccccc2)c2ccccc21 (centres undefined) | 16 | 38 | 15
12 |  | CCCc1nn(C)c2c1NC1(CCCCCC1)NC2=O | 21 | 52 | 26
13 |  | CCN1C(=O)C2(NC(=O)c3c(sc4c3CCCC4)N2)c2ccccc21 (centres undefined) | 21 | 34 | 12
